# Article PMC2533715, “Suppressive Effects of Selected Food Phytochemicals on CD74 Expression in NCI-N87 Gastric Carcinoma Cells” (Journal of Clinical Biochemistry and Nutrition, 2008)
# Key:
# CD74 = experiment: Cell-based ELISA for constitutive CD74 expression; design: species or system human; conditions: 48 h, NCI-N87 cells; for IR (%) inhibition rate of CD74 expression: mean ± average deviation; for IC50: mean of duplicate experiments, unit printed in b25 only, read-out: IC50 (50% inhibitory concentration) for constitutive CD74 expression
# [1] = test system: NCI-N87 gastric carcinoma cells; experiment: Cell viability (MTT); conditions: NCI-N87 cells, 48 h
# Cell viability (MTT) = conditions: human
# H. pylori = conditions: cited from earlier work
# H. pylori urease = test system: H. pylori urease; design: method as in PMID 14550260; conditions: in vitro; cited from earlier work
# [2] = test system: H. pylori-induced gastritis; design: method as in PMID 14550260; conditions: Mongolian gerbils; cited from earlier work
# NF-κB [3] = test system: NF-κB; design: method as in PMID 15589482, PMID 16317159, PMID 9521814, PMID 17420607; conditions: several cell lines; cited from earlier work
# [4] = test system: H. pylori-infected human gastric mucosal cells; design: method as in PMID 17028789; conditions: cited from earlier work
# in vitro = conditions: human
# NF-κB [5] = test system: NF-κB; design: method as in PMID 12106602; conditions: MKN45 gastric carcinoma cells co-cultured with H. pylori; cited from earlier work
# CYP1A1 = test system: CYP1A1; design: method as in PMID 15670584; conditions: cited from earlier work
# skin tumors = test system: skin tumors; design: method as in PMID 9276625; conditions: mice; cited from earlier work
# leukemia differentiation = test system: leukemia differentiation; design: method as in PMID 10552768; conditions: cited from earlier work
# [6] = test system: cytochrome P450 (CYP) 3A4; design: method as in PMID 9548795; conditions: cited from earlier work
# NO generation = test system: NO generation; design: method as in PMID 10563895; conditions: cited from earlier work
# MCF-7 cells = test system: MCF-7 cells; design: method as in PMID 12641443; conditions: induced by benzo[a]pyrene and 7,12-dimethylbenz[a]anthracene; cited from earlier work
# [7] = NCI-N87 gastric carcinoma cells
Structure (SMILES),IR (%) inhibition rate of CD74 expression (CD74; 4 µM),IR (%) inhibition rate of CD74 expression (CD74; 20 µM),Suppression of CD74 expression (in words) (CD74),IC50 (CD74),"viability at 48 h, 4 µM (Cell viability (MTT); [7])","viability at 48 h, 20 µM (Cell viability (MTT); [7])","viability at 48 h, 100 µM (Cell viability (MTT); [7])",CC50 at 48 h (Cell viability (MTT)),NF-κB inhibition (NF-κB [3]),other results
Oc1cc(O)c2c(c1)O[C@@H](c1ccc(O)c(O)c1)[C@H](O)C2 [(−)-Catechin],−6.4 ± 2.0%,40 ± 2.1%,suppressive only at a high concentration,69.2 µM,97 ± 2.5%,97 ± 3.3%,89 ± 5.9%,–,–,"IR (%) inhibition rate of CD74 expression (CD74; 20 µM, listed as (−)-catechin): 40–65%; IR (%) inhibition rate of CD74 expression (CD74; 100 µM): 65 ± 0.8%; Cytotoxicity (in words) [1]: Marginal cytotoxicity; CC50 at 48 h (Cell viability (MTT); [7]): > 100 µM"
CC(C)=CCC/C(C)=C/COc1ccc2ccc(=O)oc2c1 [Auraptene],2.4 ± 2.0%,50 ± 0.4%,significant activity,19.8 µM,96 ± 2.7%,79 ± 4.5%,18 ± 0.4%,59.2 µM,–,"IR (%) inhibition rate of CD74 expression (CD74; 20 µM, listed as auraptene): 40–65%; H. pylori colonization (H. pylori; in vivo): reduce"
"O=C(OC1Cc2c(O)cc(O)cc2OC1c1cc(O)c(O)c(O)c1)c1cc(O)c(O)c(O)c1 (single isomer, unassigned; (-)) [EGCG, (−)-epigallocatechin-3-gallate]",−110 ± 8.3%,−149 ± 3.8%,"did not suppress CD74 expression, but rather enhanced it",> 100 µM,78 ± 6.3%,77 ± 3.1%,78 ± 5%,> 100 µM,–,IR (%) inhibition rate of CD74 expression (CD74; 100 µM): −217 ± 4.0%; H. pylori urease activity (H. pylori urease): strongly inhibited; H. pylori-induced gastritis [2]: suppressed
O=c1c(O)c(-c2ccc(O)c(O)c2)oc2cc(O)cc(O)c12 [Quercetin],3.7 ± 0.0%,51 ± 4.7%,–,19.8 µM,100 ± 3%,100 ± 3%,51 ± 0.5%,> 100 µM,markedly inhibit,"IR (%) inhibition rate of CD74 expression (CD74; 20 µM, listed as quercetin): 40–65%; N-methyl-N’-nitro-N-nitrosoguanidine-induced inflammation [4]: reduced"
COc1ccc(-c2cc(=O)c3c(OC)c(OC)c(OC)c(OC)c3o2)cc1OC [Nobiletin],1.8 ± 2.9%,54 ± 5.0%,significant activity,18.8 µM,96 ± 0.3%,93 ± 0.5%,58 ± 5%,> 100 µM,markedly inhibit,"IR (%) inhibition rate of CD74 expression (CD74; 20 µM, listed as nobiletin): 40–65%"
O=c1cc(-c2ccc(O)c(O)c2)oc2cc(O)cc(O)c12 [Luteolin],4.0 ± 5.1%,55 ± 1.2%,–,18.4 µM,99 ± 2.9%,81 ± 4.7%,61 ± 1.5%,–,markedly inhibit,"IR (%) inhibition rate of CD74 expression (CD74; 20 µM, listed as luteolin): 40–65%; CC50 at 48 h (in vitro): > 100 µM"
"COc1cc(/C=C/C(=O)CC(=O)/C=C/c2ccc(O)c(OC)c2)ccc1O [Curucumin, curcumin]",21 ± 8.0%,–,–,< 20 µM,89 ± 1.1%,12 ± 1.9%,14 ± 6.8%,–,–,CC50 at 48 h (in vitro): 44.3 µM
O=c1c(-c2ccc(O)cc2)coc2cc(O)cc(O)c12 [Genistein],8.6 ± 7.8%,49 ± 7.2%,–,20.5 µM,100 ± 0.4%,84 ± 1.5%,55 ± 4.6%,> 100 µM,–,"IR (%) inhibition rate of CD74 expression (CD74; 20 µM, listed as genistein): 40–65%; NF-κB activation (NF-κB [5]): decreased"
C[C@H]1[C@H](C)CC[C@]2(C(=O)O)CC[C@]3(C)C(=CC[C@@H]4[C@@]5(C)CC[C@H](O)C(C)(C)[C@@H]5CC[C@]43C)[C@H]12 [Ursolic acid],35 ± 6.1%,–,–,< 20 µM,91 ± 1.6%,38 ± 1.1%,9.7%,–,–,CC50 at 48 h (in vitro): 35.4 µM
C/C1=C\CC(C)(C)/C=C/C(=O)/C(C)=C/CC1 [Zerumbone],6.6 ± 0.8%,57 ± 0.2%,–,17.7 µM,100 ± 0.4%,77 ± 0.3%,16 ± 1.1%,–,markedly inhibit,"IR (%) inhibition rate of CD74 expression (CD74; 20 µM, listed as zerumbone): 40–65%; CC50 at 48 h (Cell viability (MTT); [7]): 60.5 µM"
"S=C=NCc1ccccc1 [BITC, benzyl isothiocyanate]",–19 ± 0.6%,–,–,< 20 µM,96 ± 3.4%,56 ± 7.9%,–,44.3 µM,–,"viability at 48 h, 100 µM (in vitro): 6.1 ± 1.3%"
O=C1O[C@H]([C@@H](O)CO)C(O)=C1O [Ascorbic acid],–12 ± 3.5%,5.4 ± 3.8%,–,> 100 µM,97 ± 1.7%,94 ± 0.3%,86 ± 5.8%,> 100 µM,–,"IR (%) inhibition rate of CD74 expression (CD74; 100 µM): 6.8 ± 1.8%; IR (%) inhibition rate of CD74 expression (CD74; 100 µM, listed as ascorbic acid): did not suppress CD74; H. pylori colonization and subsequent inflammation (H. pylori; Mongolian gerbils): reduced"
CC(C)=CCC/C(C)=C/COc1c2ccoc2cc2oc(=O)ccc12 [Bergamottin],8.6 ± 4.2%,74 ± 8.2%,significant activity,14.2 µM,93%,79%,59 ± 2.1%,–,–,"Inhibition of CYP1A1 (CYP1A1): inhibit; IR (%) inhibition rate of CD74 expression (CD74; 20 µM, listed as bergamottin): 74%; Skin tumors (skin tumors): reduced; Leukemia differentiation (leukemia differentiation): induced; Inhibition of cytochrome P450 (CYP) 3A4 [6]: inhibit; CC50 at 48 h (Cell viability (MTT); [7]): > 100 µM; NO generation (NO generation): reduced; Formation of DNA adducts (MCF-7 cells): reduced"
